Assay [1] concerns the target T1, hCES1A (Homo sapiens, UniProt P23141).
T1 sequence (P23141 18-567): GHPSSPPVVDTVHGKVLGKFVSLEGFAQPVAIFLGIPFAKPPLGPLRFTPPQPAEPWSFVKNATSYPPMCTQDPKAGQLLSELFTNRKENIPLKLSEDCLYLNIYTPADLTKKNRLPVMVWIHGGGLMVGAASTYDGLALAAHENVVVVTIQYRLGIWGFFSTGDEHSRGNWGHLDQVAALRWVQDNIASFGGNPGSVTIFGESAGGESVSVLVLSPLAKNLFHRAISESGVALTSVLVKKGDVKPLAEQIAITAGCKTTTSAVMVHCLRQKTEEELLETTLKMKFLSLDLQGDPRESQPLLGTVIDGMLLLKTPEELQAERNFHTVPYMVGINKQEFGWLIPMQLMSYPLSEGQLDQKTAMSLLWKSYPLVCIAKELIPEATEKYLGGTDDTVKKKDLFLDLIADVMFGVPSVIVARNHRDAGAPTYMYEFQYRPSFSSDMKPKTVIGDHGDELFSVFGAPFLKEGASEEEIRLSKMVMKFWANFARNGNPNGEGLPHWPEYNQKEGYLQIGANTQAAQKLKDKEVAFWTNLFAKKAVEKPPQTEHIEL
As to the kind of experiment: Inhibition assay on hCES1A (bioluminogenic substrate NLMe). The class given is biochemical. To be noted: for IC50: mean ± SD, n = 3; for hCES1A IC50 Fold Increase: ratio of IC50 at 3 min to IC50 at 33 min. The method, then:
In this study, a known bioluminogenic probe substrate NLMe was used for human carboxylesterase 1 (hCES1A) inhibition assays. ([Wang et al., 2020]). In brief, the incubation mixture (0.1 mL) consisted of 0.1 M buffer PBS (PH 6.5), hCES1A (0.1 μg/mL, final concentration) and each test compound. […] After 20 min incubation, equal volume of LDR was added to stop reaction. The luminescence signals were monitored in the microplate reader (SpectraMax iD3Molecular Devices, Austria). […]
(§1) The household library of covalent fragments including D and F was from Organic Chemistry […]
(§2) Fig. S1. Partial fragment molecules of a household library targeting to serine. […]
Inhibition assay on hCES1A
In this study, a known bioluminogenic probe substrate NLMe was used for human carboxylesterase 1 (hCES1A) inhibition assays. 2 In brief, the incubation mixture (0.1 mL) consisted of 0.1 M buffer PBS (PH 6.5), hCES1A (0.1 μg/mL, final concentration) and each test compound. […]
After 20 min incubation, equal volume of LDR was added to stop reaction.

Assay [2] addresses T1, hCES1A. As to the kind of experiment: Co-crystallography with hCES1A. The class given is binding. Conditions: 1:5 molar ratio. The procedure: Purified hCES1A incubated with F-3 and F-4 at 1:5 M ratio for 1 h at 18°C. Crystallisation screening was performed using commercially available kit sets using sitting drop vapor diffusion at 16°C. Both diffraction-quality crystals were obtained from the condition containing 14.4% peg8000 (w/v), 0.1M MES 6.4, 0.3M CaAc and 20% glycerol. Crystals were flash cooled in liquid nitrogen after cryoprotection in 25% glycerin. Date was collected on 02U1 at Shanghai Synchrotron Radiation Facility (SSRF). Data images were processed using program HKL2000. ([Otwinowski and Minor, 1997]). Crystal structures were solved using molecular replacement with the Phenix software suite using unbound hces1a (Protein Data Bank [PDB] accession number 1MX1 as the search model. Structure refinement was performed using Phenix. ([Adams et al., 2010]). The program COOT was used for manual rebuilding. ([Emsley and Cowtan, 2004]). Molecular graphics images were generated using CCP4MG. ([McNicholas et al., 2011]). […]
fluorogenic probe. 4 Briefly, the incubation mixtures (0.1 mL) contained Tris-HCl buffer, hPL solution (0.25 μg/mL, final concentration), porcine bile salt (0.1 mg/mL, final concentration) and each inhibitor (with different concentrations). […] The fluorescent signals of hydrolytic product were quantified by using the microplate reader (Spectra Max M4, Austria), with the wavelength of 600 nm and 660 nm for excitation and emission, respectively. […]
OPTS, a known fluorogenic probe, was used as the substrate to assess the residual activities of Notum in the presence of each tested compound. […] After preincubated at 37 °C for 1 min, OPTS was added to initiate the hydrolytic reaction and the multi-mode microplate reader (SpectraMax iD3, Molecular Devices, Austria) was used to analyze the florescence signals of the […]
The F-3, F-4, F-10-bound peptides was analysed using the nanoLC-MS/MS system, respectively.6 The purified hCES1A (150 μg, final content) was co-incubated with the small molecule inhibitor F-3/ F-4/ F-10 (100 μM, final concentration) at 4 °C and 25 °C, respectively, for 4h. […]

The next assay deals with T2, hCES2A (Homo sapiens, UniProt O00748).
T2 sequence (O00748 27-559): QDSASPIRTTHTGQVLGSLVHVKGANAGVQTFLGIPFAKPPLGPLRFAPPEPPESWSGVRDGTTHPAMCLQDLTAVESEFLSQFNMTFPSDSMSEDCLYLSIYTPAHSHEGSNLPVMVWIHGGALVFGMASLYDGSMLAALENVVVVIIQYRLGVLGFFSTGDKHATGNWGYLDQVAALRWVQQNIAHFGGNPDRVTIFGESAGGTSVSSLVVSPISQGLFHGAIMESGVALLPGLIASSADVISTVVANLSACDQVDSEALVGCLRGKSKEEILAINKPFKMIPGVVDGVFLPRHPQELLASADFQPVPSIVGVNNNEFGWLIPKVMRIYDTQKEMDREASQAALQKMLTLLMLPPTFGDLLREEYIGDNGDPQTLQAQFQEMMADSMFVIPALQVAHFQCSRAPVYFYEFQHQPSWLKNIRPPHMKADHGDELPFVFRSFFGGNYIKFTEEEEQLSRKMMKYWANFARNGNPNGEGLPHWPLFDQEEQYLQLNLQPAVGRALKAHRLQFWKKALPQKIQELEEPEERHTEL
The experiment in a line: Inhibition assay on hCES2A (fluorescent substrate FD). Format: biochemical. Conditions: mean ± SD, n = 3. The procedure: 1. Detailed experimental, materials, and methods
as §1, §2
Inhibition assay on hCES2A
Human carboxylesterase 2 (hCES2A) inhibition assays were conducted using FD, a known fluorescent substrate. 3 Briefly, hCES2A (0.4 μg/mL, final concentration) was preincubated with analytes/DMSO (as a control group) in PBS (pH 7.4) at 37 °C for 3 min. This was followed by adding the substrate FD (4 μM, final concentration) in the incubation mixture and allowing it to react for 30 min. The fluorescent signals (excitation/emission, 480 nm/525 nm) were continuously recorded by a microplate reader (SpectraMax iD3Molecular Devices, Austria). […]

[3] abbreviates: 3 min incubation, read-out: hCES1A IC50 3 min.
[4] abbreviates: 33 min incubation, read-out: hCES1A IC50 33 min.
[5] abbreviates: 3 min incubation, read-out: hCES2A IC50 3 min.
Setting [6] is: 33 min incubation, read-out: hCES2A IC50 33 min.

What is called IC50 is the point on the concentration scale where inhibition reaches its midpoint.

Like-named read-outs stand apart in the source and are kept apart here.

As to `O=C(c1ccc(I)cc1)C(F)(F)F` [Compound F-9], the IC50 at hCES1A [1] (setting [3]) was determined as 37.7 ± 8.6 nM; on hCES1A [1] (setting [4]), 6.2 ± 1.1 nM. The “hCES1A IC50 Fold Increase” value at hCES1A [1] is recorded as 6.1.

Take `O=C(c1ccc(Cl)c(Cl)c1)C(F)(F)F` [Compound F-4]: the “covalent binding mode at the catalytic triad (Ser221) in co-crystal” value at hCES1A [2] is “forming an expected hemiacetal covalent bond”. Moreover, the IC50 at hCES1A [1] (setting [3]) is 10 ± 1.4 nM; on hCES1A [1] (setting [4]), 2.4 ± 0.4 nM. The “hCES1A IC50 Fold Increase” value on hCES1A [1] was 4.2.

Regarding `COc1ccc(C(=O)C(F)(F)F)cc1` [Compound F-14], the IC50 is 30.2 ± 12.1 nM at hCES1A [1] (setting [3]) and 29.7 ± 20.7 nM at hCES1A [1] (setting [4]).

On to `O=C(c1ccc(C(F)(F)F)cc1)C(F)(F)F` [Compound F-11], for which the IC50 at hCES1A [1] (setting [3]) and on hCES1A [1] (setting [4]) was greater than 2000 nM each time.

In the case of `O=C(c1ccccc1Cl)C(F)(F)F` [Compound F-3], the IC50 at hCES2A (setting [5]) was determined as 102 ± 20.6 nM; at hCES2A (setting [6]), 85.6 ± 36 nM; at hCES1A [1] (setting [3]) it was 11.6 ± 0.7 nM; on hCES1A [1] (setting [4]) it was 2.3 ± 0.4 nM. The “covalent binding mode at the catalytic triad (Ser221) in co-crystal” value at hCES1A [2] is “promising covalent binding modes”. Moreover, the “hCES1A IC50 Fold Increase” value at hCES1A [1] is given as 5.0.

For `O=C(c1ccc(Br)cc1)C(F)(F)F` [Compound F-7], the IC50 on hCES1A [1] (setting [3]) came out at 16.1 ± 2.3 nM; at hCES1A [1] (setting [4]) it was 2.1 ± 0.6 nM. Further, the “hCES1A IC50 Fold Increase” value at hCES1A [1] is listed as 7.7.

On to `O=C(c1ccc(F)cc1)C(F)(F)F` [Compound F-8], for which the half-maximal inhibitory concentration (IC50) on hCES1A [1] (setting [3]) turned out to be 1700 nM; on hCES1A [1] (setting [4]) it was 603 ± 107 nM. The “hCES1A IC50 Fold Increase” value on hCES1A [1] worked out at 2.8.

Regarding `O=C(c1cccc(Cl)c1)C(F)(F)F` [Compound F-2], the IC50 was determined as 76.8 ± 10.9 nM on hCES2A (setting [5]), 90 ± 21 nM at hCES2A (setting [6]), 34.1 ± 5.3 nM at hCES1A [1] (setting [3]) and 2.5 ± 0.4 nM on hCES1A [1] (setting [4]). In addition, the “hCES1A IC50 Fold Increase” value on hCES1A [1] is given as 13.6.

For the compound `O=C(c1ccc(Cl)cc1)C(F)F` [Compound F1-1], the figures for the IC50 at hCES1A [1] (setting [3]) and on hCES1A [1] (setting [4]) were 58 ± 6 nM and 102 ± 37.4 nM, respectively. In addition, the “hCES1A IC50 Fold Increase” value at hCES1A [1] worked out at 0.6.

`O=C(CF)c1ccc(Cl)cc1` [Compound F1-2]: the IC50 at hCES1A [1] (setting [3]) is 1210 nM; on hCES1A [1] (setting [4]), 874 ± 92.2 nM. The “hCES1A IC50 Fold Increase” value at hCES1A [1] is 1.4.

Consider `CCc1ccc(C(=O)C(F)(F)F)cc1` [Compound F-15], for which the values for the IC50 at hCES1A [1] (setting [3]) and on hCES1A [1] (setting [4]) were 18.7 ± 4.2 nM and 23.8 ± 12.4 nM, respectively.

On to `O=C(c1ccc(Cl)cc1)C(F)(F)F` [Compound F-1], for which the IC50 on hCES2A (setting [5]) was found to be 59.1 ± 9.8 nM; at hCES2A (setting [6]), 71.3 ± 19.4 nM; on hCES1A [1] (setting [3]), 14.4 ± 1.9 nM; at hCES1A [1] (setting [4]), 1.9 ± 0.2 nM. Moreover, on hCES1A [1], the “hCES1A IC50 Fold Increase” value amounted to 7.6.

On to `O=C(c1cc(Cl)c(Cl)c(Cl)c1)C(F)(F)F` [Compound F-10], for which the concentration for half-maximal inhibition (IC50) on hCES1A [1] (setting [3]) stood at 30 ± 4.5 nM; at hCES1A [1] (setting [4]), 2.8 ± 0.4 nM. The “hCES1A IC50 Fold Increase” value on hCES1A [1] came out at 10.7.

Regarding `O=C(c1cccc(Br)c1)C(F)(F)F` [Compound F-5], the IC50 was 17 ± 3 nM on hCES1A [1] (setting [3]) and 1.7 ± 0.5 nM on hCES1A [1] (setting [4]). In addition, at hCES1A [1], the “hCES1A IC50 Fold Increase” value came out at 10.0.

With `O=C(c1ccccc1Br)C(F)(F)F` [Compound F-6], the IC50 was 9.9 ± 1.01 nM on hCES1A [1] (setting [3]) and 52.8 ± 15.9 nM at hCES1A [1] (setting [4]). Also, the “hCES1A IC50 Fold Increase” value at hCES1A [1] is given as 0.2.

Regarding `Nc1ccc(C(=O)C(F)(F)F)cc1` [Compound F-12], the IC50 at hCES1A [1] (setting [3]) came to 470 ± 120 nM; on hCES1A [1] (setting [4]), 670 ± 130 nM.

These data come from PMC11649397, “The study of halogen effect on the reactivity of the serine-targeting covalent warheads” (Frontiers in Chemistry, 2024).
